Numbers after ± are expanded uncertainties.
Settings: Liquid, Closed cell (Static) method

Structure (SMILES)	vapor or sublimation pressure (283.6 K) [kPa]	vapor or sublimation pressure (293.4 K) [kPa]	vapor or sublimation pressure (298.3 K) [kPa]	vapor or sublimation pressure (303.2 K) [kPa]	vapor or sublimation pressure (308.1 K) [kPa]	vapor or sublimation pressure (313.1 K) [kPa]	vapor or sublimation pressure (323 K) [kPa]	vapor or sublimation pressure (327.9 K) [kPa]	vapor or sublimation pressure (332.8 K) [kPa]	vapor or sublimation pressure (337.8 K) [kPa]	vapor or sublimation pressure (298.4 K) [kPa]	vapor or sublimation pressure (303.3 K) [kPa]	vapor or sublimation pressure (308.2 K) [kPa]	vapor or sublimation pressure (318.1 K) [kPa]	further results
Cc1ccccc1 [toluene]	1.7 ± 0.42	2.97 ± 0.45	3.89 ± 0.47	5 ± 0.5	6.27 ± 0.55	7.99 ± 0.62	12.26 ± 0.77	15 ± 0.9	18.26 ± 1	22.04 ± 1.1	–	–	–	–	vapor or sublimation pressure (278.7 K): 1.26 ± 0.41 kPa; vapor or sublimation pressure (288.5 K): 2.26 ± 0.43 kPa; vapor or sublimation pressure (318 K): 9.95 ± 0.68 kPa
CC(C)CC(C)(C)C [2,2,4-trimethylpentane]	3.05 ± 0.46	5.18 ± 0.51	6.63 ± 0.42	–	–	12.97 ± 0.8	19.54 ± 1.1	–	28.66 ± 1.4	–	6.62 ± 0.42	8.39 ± 0.64	10.53 ± 0.7	15.96 ± 0.94	vapor or sublimation pressure (288.4 K): 3.99 ± 0.48 kPa; vapor or sublimation pressure (328 K): 23.81 ± 1.3 kPa
CCO [ethanol]	–	5.95 ± 0.56	7.96 ± 0.7	10.52 ± 0.85	13.84 ± 1	17.87 ± 1.2	–	36.73 ± 2.3	46.15 ± 2.6	–	–	–	–	22.98 ± 1.5	vapor or sublimation pressure (278.6 K): 2.18 ± 0.45 kPa; vapor or sublimation pressure (283.5 K): 3.11 ± 0.5 kPa; vapor or sublimation pressure (322.9 K): 29.05 ± 1.9 kPa
COC(C)(C)C [2-methoxy-2-methylpropane]	17.79 ± 1.1	–	–	–	–	59.9 ± 2.8	85.01 ± 3.8	100.34 ± 4.4	–	137.39 ± 5.4	33.72 ± 1.8	41.1 ± 2.1	49.8 ± 2.4	71.61 ± 3.3	vapor or sublimation pressure (288.6 K): 22.07 ± 1.2 kPa; vapor or sublimation pressure (293.5 K): 27.43 ± 1.5 kPa; vapor or sublimation pressure (332.9 K): 117.7 ± 5 kPa
